Laboratory results: patent US20250041237A1, “HEMOGLOBIN-BASED NANOPARTICLES” (priority 2023, published 2025)

Key:
[1] = test system: murine or human neutrophils; assay: Transwell chemotaxis assay; type: cell-based; settings: lipid radical scavenger added
Source text: Transwell chemotaxis assay. Cytoplasmic membranes of S. aureus Newman, MRSA, or MDRSA were isolated from lysostaphin-induced protoplasts as previously described. Briefly, the bacterial cells were washed and resuspended in buffered hypertonic sucrose, followed by treatment with lysostaphin to digest the cell walls. The resulting protoplasts were recovered and lysed in the dilute buffer to extract cytoplasmic membranes. To evaluate the chemotaxis ability of human or murine neutrophils towards S. aureus membranes, a 96-transwell plate with 3 μm pores was used (Corning, USA). The bottom wells were loaded with 200 μL of the bacterial cell membrane in chemotaxis buffer (49% HBSS, 0.5% human serum albumin, 4 mM L-glutamine, and 49% RPMI 1640), while the top wells contained 2×10^5 neutrophils in 75 μL chemotaxis buffer. The plate was incubated in the dark at 37° C. with 5% CO2 for 1.5 h. Neutrophils that had migrated into the bottom wells were lysed with elastase assay buffer to release the neutrophil elastase. The activity of elastase was measured using the chromogenic substrate, N-methoxysuccinyl-Ala-Ala-Pro-Val-p-nitroanilide, at a final concentration of 1 mM. The absorbance at 405 nm was measured using a GloMax-Multi microplate multimode reader (Promega, WI, USA) to determine the number of migrated neutrophils.

MRSA = assay: Mouse MRSA peritonitis model study; type: in vivo, ICR mice; settings: treated i.v. 6 h after MRSA i.p. inoculation; monitored two weeks

Row | SMILES | Hb-Naf@RBCM-induced neutrophil recruitment [1] | survival (MRSA)
1 | Clc1cccc(CN=C2Nc3ccccc3NC23CCNCC3)c1 [Liproxstatin-1] | significantly inhibited | 
2 | CN(C/C=C/c1ccccc1)Cc1cccc2ccccc12 [naftifine] |  | 12.5%
